Test results published in ChEMBL document CHEMBL3044902, “Effect of Optically Active Ethyl 2-Phthalimidooxypropionate on the Growth of Cress, Lepidium sativum” (1999).

Tests used:
Format in all cases: functional
Lepidium sativum [1] = assay: Inhibition of germination of Lepidium sativum at 100 ppm relative to untreated control
Lepidium sativum [2] = assay: Inhibition of root growth of Lepidium sativum at 100 ppm relative to untreated control; conditions: read-out: GI
Lepidium sativum [3] = assay: Inhibition of germination of Lepidium sativum at 10 ppm relative to untreated control
Lepidium sativum [4] = assay: Inhibition of root growth of Lepidium sativum at 1 ppm relative to untreated control; conditions: read-out: GI
Lepidium sativum [5] = assay: Inhibition of root growth of Lepidium sativum at 1.1 microM relative to untreated control; conditions: read-out: GI
Lepidium sativum [6] = assay: Inhibition of root growth of Lepidium sativum at 3.8 microM relative to untreated control; conditions: read-out: GI
Lepidium sativum [7] = assay: Inhibition of root growth of Lepidium sativum at 0.38 microM relative to untreated control; conditions: read-out: GI

Structure (SMILES)	inhibition at 100 ppm (Lepidium sativum [1]) [%]	inhibition of growth at 100 ppm (Lepidium sativum [2]) [%]	inhibition at 10 ppm (Lepidium sativum [3]) [%]	inhibition of growth at 1 ppm (Lepidium sativum [4]) [%]	inhibition of growth at 1.1 µM (Lepidium sativum [5]) [%]	inhibition of growth at 3.8 µM (Lepidium sativum [6]) [%]	inhibition of growth at 0.38 µM (Lepidium sativum [7]) [%]
CCOC(=O)CON1C(=O)c2ccccc2C1=O	100	100	0	0			
CCOC(=O)[C@@H](C)ON1C(=O)c2ccccc2C1=O					5	14	0
CCCCCOC(=O)C(C)ON1C(=O)c2ccccc2C1=O (configuration not stated)				64			
CCOC(=O)C(C)ON1C(=O)c2ccccc2C1=O (configuration not stated)	100	100	0	68			
CCOC(=O)[C@H](C)ON1C(=O)c2ccccc2C1=O					49	72	35
CC(ON1C(=O)c2ccccc2C1=O)C(=O)OC(C)(C)C (configuration not stated)				1			
CCC(C)OC(=O)C(C)ON1C(=O)c2ccccc2C1=O (configuration not stated)				42			
CCCOC(=O)C(C)ON1C(=O)c2ccccc2C1=O (configuration not stated)				64			
CC(C)OC(=O)C(C)ON1C(=O)c2ccccc2C1=O (configuration not stated)				51			
CCCCOC(=O)C(C)ON1C(=O)c2ccccc2C1=O (configuration not stated)				59			
CCOC(=O)C(Cc1ccccc1)ON1C(=O)c2ccccc2C1=O (configuration not stated)	0	70		0			
CCCC(C)ON1C(=O)c2ccccc2C1=O (configuration not stated)	0	56		0			
CCOC(=O)C(C)CN1C(=O)c2ccccc2C1=O (configuration not stated)	0	41		0			
COC(=O)C(C)ON1C(=O)c2ccccc2C1=O (configuration not stated)				64			
CCCCCCC(ON1C(=O)c2ccccc2C1=O)C(=O)OCC (configuration not stated)	0	72		0			
CCOC(=O)C(ON1C(=O)c2ccccc2C1=O)c1ccccc1 (configuration not stated)	0	60		0			
CCOC(=O)C(C)(C)ON1C(=O)c2ccccc2C1=O	60	95	0	0			
CCOC(=O)C(CC)ON1C(=O)c2ccccc2C1=O (configuration not stated)	80	94	0	0			
CCOC(=O)C(C)ON1C(=O)c2ccccc2C1=O (racemic)					33	68	14
